Experimental data from patent publication EP0584256B1, “COMPOUNDS AND PHARMACEUTICAL COMPOSITIONS FOR DETECTING AND LOCALIZING TISSUES HAVING NEUROKININE 1 RECEPTORS” (MALLINCKRODT MEDICAL, INC., priority 1991, dated 1999).

Key:
SP-receptors [1] = assay: Displacement of / binding of [125I]BH-SP, rat brain cortex membranes; settings: membranes of the cortex of rat brains; Figure 1
Procedure: (§1) Binding studies in vitro are carried out in a standardized system by studying the displacement of ^125I-Bolton Hunter substance P {[^125I]BH-SP} by the above-synthetized labelled peptides.

SP-receptors [2] = assay: Displacement of / binding of [125I]BH-SP, human glioma membranes; settings: Figure 1
Procedure: as §1

[3] = system: human meningioma membranes; assay: Binding of [125I]BH-SP to human meningioma membranes; settings: Figure 1
Procedure: as §1

[4] = format: in vitro ADME, rat
From the text: A liver perfusion model is used as described by Docter et al. in Endocrinology 1990, 126, 451-459. It is a generally accepted fact in this art, that handling of bio-active substances by the isolated perfused rat liver according to this model has a very good predictable value for the appearance of metabolites of the used substance in the circulation of human beings. In short, in this model isolated livers are perfused in a recirculating system with Krebs-Ringer medium supplemented with 1% bovine serum albumin and 10 mM glucose. After 0.5 hr preperfusion, experiments are started by addition of the labelled substance P (5 µCi) to the medium. At regular time points medium samples are taken. Medium samples are analyzed by column chromatography, using Seppak^(R) C-18 columns.
The average results are presented in Figures 4-6, showing the disappearance of the total radioactivity ("tot. act.") and of the peptide-bound radioactivity ("protein") with concomitant appearance of non-peptide bound radioactivity in the circulating medium as a degradation product.
Figures 7-9 show the excretion of the tested labelled peptides into the bile.

[^125I]BH-SP: ^125I-Bolton Hunter substance P, known radioligand from in vitro binding studies
specific binding to membranes (SP-receptors [1]): specifically binds | specific binding to membranes (SP-receptors [2]): specifically binds | specific binding to membranes [3]: not | liver metabolic clearance [4]: relatively fast
